Patent publication US20170121322A1, “BET-PROTEIN INHIBITING 3,4-DIHYDROPYRIDO[2,3-B]PYRAZINONES WITH META-SUBSTITUTED AROMATIC AMINO- OR ETHER GROUPS” (Bayer Pharma Aktiengesellschaft, priority 2014, published 2017)

What was measured:
B16F10 cells = assay: Cell proliferation assay B16F10 (alamarBlue); assay type: cell-based; conditions: Mus musculus, B16-F10, melanoma (BRAF wild-type) cells, 96 hours
Description: (§1) In accordance with the invention, the ability of the substances to inhibit cell proliferation was determined. Cell viability was determined by means of the alamarBlue® reagent (Invitrogen) in a Victor X3 Multilabel Reader (Perkin Elmer). The excitation wavelength was 530 nm and the emission wavelength […].
The B16F10 cells (ATCC, CRL-6475) were seeded at a concentration of 300-500 cells/well in 100 μl of growth medium (DMEM with phenol red, 10% FCS) on 96-well microtitre plates.
(§2) After overnight incubation at 37° C., the fluorescence values (CI values) were determined. Then the plates were treated with various substance dilutions (1E-5 M, 3E-6 M, 1E-6 M, 3E-7 M, 1E-7 M, 3E-8 M, 1E-8 M) and incubated at 37° C. over 96 hours (MOLM-13, B16F10, CHL-1 cells) or 120 hours (MOLP-8 cells). Subsequently, the fluorescence values were determined (CO values). For the data analysis, the CI values were subtracted from the CO values and the results were compared between cells which had been treated with various dilutions of the substance or only with buffer solution. The IC50 values (substance concentration needed for 50% inhibition of cell proliferation) were calculated therefrom.
(§3) The substances were tested in the cell lines in Table 2, which represent the indications specified by way of example: […]

[1] = biological target: T1, BRD4 bromo domain 2 [BRD4(2)] (Homo sapiens, UniProt O60885); assay: BRD4(2)/acetylated peptide H4 TR-FRET binding assay; conditions: His6-BRD4(2) (aa 357-445) vs acetylated histone H4 peptide
T1 construct: N-terminally His6-tagged BRD4(2) (amino acids 357-445); made in house; host or cells: E. coli
Excerpt: To assess the BRD4(2) binding strength of the substances described in this application, the ability thereof to inhibit the interaction between BRD4(2) and acetylated histone H4 in a dose-dependent manner was quantified.
For this purpose, a time-resolved fluorescence resonance energy transfer (TR-FRET) assay was used, which measures the binding between N-terminally His6-tagged BRD4(2) (amino acids 357-445) and a synthetic acetylated histone H4 (Ac-H4) peptide with sequence SGRGK(Ac)GGK(Ac)GLGK(Ac)GGAK(Ac)RHRKVLRDNGSGSK-biotin. The recombinant BRD4(2) protein produced in-house according to Filippakopoulos et al., Cell, 2012, 149:214-231 was expressed in E. coli and purified by means of (Ni-NTA) affinity and (Sephadex G-75) size exclusion chromatography. The Ac-H4 peptide can be purchased, for example, from Biosyntan (Berlin, Germany).
In the assay, typically 11 different concentrations of each substance (0.1 nM, 0.33 nM, 1.1 nM, 3.8 nM, 13 nM, 44 nM, 0.15 μM, 0.51 μM, 1.7 μM, 5.9 μM and 20 μM) were analysed as duplicates on the same microtitre plate. For this purpose, 100-fold concentrated solutions in DMSO were prepared by serial dilutions (1:3.4) of a 2 mM stock solution into a clear, 384-well microtitre plate (Greiner Bio-One, Frickenhausen, Germany). From this, 50 nl were transferred into a black test plate (Greiner Bio-One, Frickenhausen, Germany). The test was started by the addition of 2 μl of a 2.5-fold concentrated BRD4(2) solution (final concentration typically 100 nM in the 5 μl of reaction volume) in aqueous assay buffer [50 mM HEPES pH 7.5, 50 mM sodium chloride (NaCl); 50 mM potassium fluoride (KF); 0.25 mM CHAPS and 0.05% serum albumin (BSA)] to the substances in the test plate. This was followed by a 10-minute incubation step at 22° C. for the pre-equilibration of putative complexes between BRD4(2) and the substances.
The mixture was then incubated in the dark at 22° C. for one hour and then at 4° C. for at least 3 hours and for no longer than overnight. The formation of BRD4(2)/Ac-H4 complexes was determined by the measurement of the resonance energy transfer from the streptavidin-Eu chelate to the anti-6His-XL665 antibody present in the reaction. For this purpose, the fluorescence emission was measured at 620 nm and 665 nm after excitation at 330-350 nm in a TR-FRET measuring instrument, for example a Rubystar or Pherastar (both from BMG Lab Technologies, Offenburg, Germany) or a Viewlux (Perkin-Elmer). The ratio of the emissions at 665 nm and at 622 nm was taken as an indicator of the amount of BRD4(2)/Ac-H4 complexes formed.
The data (ratios) obtained were normalized, with 0% inhibition corresponding to the mean from the measurements for a set of controls (typically 32 data points) in which all the reagents were present. In these, in place of test substances, 50 nl of DMSO (100%) were used. Inhibition of 100% corresponded to the mean from the measurements for a set of controls (typically 32 data points) in which all the reagents except BRD4(2) were present. The IC50 was determined by regression analysis based on a 4-parameter equation (minimum, maximum, IC50, Hill; Y=Max+(Min−Max)/(1+(X/IC50)Hill)).

MOLM-13 cells = assay: Cell proliferation assay MOLM-13, method 1 (alamarBlue); assay type: cell-based; conditions: Homo sapiens, acute myeloid leukaemia cells, 4000 cells/well, 96-well, 96 hours
Description: as §1
The MOLM-13 cells (DSMZ, ACC 554) were seeded at a concentration of 4000 cells/well in 100 μl of growth medium (RPMI1640, 10% FCS) on 96-well microtitre plates (method 1).
as §2, §3

Row | IC50 (B16F10 cells) | IC50 [1] | IC50 (MOLM-13 cells) | Compound
1 | 1100 nM | 212 nM | 1410 nM | CC1C(=O)N(C)c2ccc(Nc3cccc(S(C)(=O)=O)c3)nc2N1c1ccccc1 (stereo not drawn) [Example 17, 1,3-Dimethyl-6-{[3-(methylsulphonyl)phenyl]amino}-4-phenyl-3,4-dihydropyrido[2,3-b]pyrazin-2(1H)-one]
2 | 248 nM | 76 nM | 205 nM | COc1ccc(S(C)(=O)=O)cc1Nc1ccc2c(n1)N(C(C)C)[C@H](C)C(=O)N2C [Example 14, (3R)-4-Isopropyl-6-{[2-methoxy-5-(methylsulphonyl)phenyl]amino}-1,3-dimethyl-3,4-dihydropyrido[2,3-b]pyrazin-2(1H)-one]
3 | 319 nM | 173 nM | 238 nM | Cc1ccc(S(C)(=O)=O)cc1Nc1ccc2c(n1)N(C1CCOCC1)[C@H](C)C(=O)N2C [Example 2, (3R)-1,3-Dimethyl-6-{[2-methyl-5-(methylsulphonyl)phenyl]amino}-4-(tetrahydro-2H-pyran-4-yl)-3,4-dihydropyrido[2,3-b]pyrazin-2(1H)-one]
4 | 304 nM | 6120 nM | 368 nM | CCOC(=O)N=S(C)(=O)c1cccc(Nc2ccc3c(n2)N(C2CCOCC2)[C@H](C)C(=O)N3C)c1 (mixture of isomers) [Example 10, Ethyl [(3-{[(3R)-1,3-dimethyl-2-oxo-4-(tetrahydro-2H-pyran-4-yl)-1,2,3,4-tetrahydropyrido[2,3-b]pyrazin-6-yl]amino}phenyl)(methyl)oxido-λ^6-sulphanylidene]carbamate]
5 | 45 nM | 47 nM | 13 nM | CC(C)S(=O)(=O)c1cccc(Nc2ccc3c(n2)N(C2CCN(C)CC2)[C@H](C)C(=O)N3C)c1 [Example 19, (3R)-6-{[3-(Isopropylsulphonyl)phenyl]amino}-1,3-dimethyl-4-(1-methylpiperidin-4-yl)-3,4-dihydropyrido[2,3-b]pyrazin-2(1H)-one]
6 |  | 83 nM | 69 nM | COc1ccc(S(C)(=O)=O)cc1Nc1ccc2c(n1)N(C1CCNCC1)[C@H](C)C(=O)N2C [Example 27, (3R)-6-{[2-Methoxy-5-(methylsulphonyl)phenyl]amino}-1,3-dimethyl-4-(piperidin-4-yl)-3,4-dihydropyrido[2,3-b]pyrazin-2(1H)-one]

Further lines, the compound ahead of its results:

Row | Compound | IC50 (B16F10 cells) | IC50 [1] | IC50 (MOLM-13 cells)
7 | CC(C)S(=O)(=O)c1ccc(OC(F)(F)F)c(Nc2ccc3c(n2)N(C2CCOCC2)[C@H](C)C(=O)N3C)c1 [Example 38, (3R)-6-{[5-(Isopropylsulphonyl)-2-(trifluoromethoxy)phenyl]amino}-1,3-dimethyl-4-(tetrahydro-2H-pyran-4-yl)-3,4-dihydropyrido[2,3-b]pyrazin-2(1H)-one] | 16 nM | 52 nM | 32 nM
8 | COc1ccc(S(=O)(=O)C2CC2)cc1Nc1ccc2c(n1)N(C1CCN(C)CC1)[C@H](C)C(=O)N2C [Example 12, (3R)-6-{[5-(Cyclopropylsulphonyl)-2-methoxyphenyl]amino}-1,3-dimethyl-4-(1-methylpiperidin-4-yl)-3,4-dihydropyrido[2,3-b]pyrazin-2(1H)-one] | 81 nM | 67 nM | 20 nM
9 | C[C@@H]1C(=O)N(C)c2ccc(Nc3ccc4c(c3)S(=O)(=O)CC4)nc2N1C1CCOCC1 [Example 4, (3R)-6-[(1,1-Dioxido-2,3-dihydro-1-benzothiophen-6-yl)amino]-1,3-dimethyl-4-(tetrahydro-2H-pyran-4-yl)-3,4-dihydropyrido[2,3-b]pyrazin-2(1H)-one] | 375 nM | 64 nM | 289 nM
10 | COc1ccc(S(C)(=O)=O)cc1Nc1ccc2c(n1)N(C1CCOCC1)[C@H](C)C(=O)N2C [Example 3, (3R)-6-{[2-Methoxy-5-(methylsulphonyl)phenyl]amino}-1,3-dimethyl-4-(tetrahydro-2H-pyran-4-yl)-3,4-dihydropyrido[2,3-b]pyrazin-2(1H)-one] | 199 nM | 58 nM | 175 nM
11 | C[C@@H]1C(=O)N(C)c2ccc(Nc3cccc(C(F)(F)F)c3)nc2N1C1CCOCC1 [Example 43, (3R)-1,3-Dimethyl-4-(tetrahydro-2H-pyran-4-yl)-6-{[3-(trifluoromethyl)phenyl]amino}-3,4-dihydropyrido[2,3-b]pyrazin-2(1H)-one] | 1080 nM | 234 nM | 1220 nM
12 | COc1ccc(S(=O)(=O)C(C)C)cc1Nc1ccc2c(n1)N(C1CCOCC1)[C@H](C)C(=O)N2C [Example 9, (3R)-6-{[5-(Isopropylsulphonyl)-2-methoxyphenyl]amino}-1,3-dimethyl-4-(tetrahydro-2H-pyran-4-yl)-3,4-dihydropyrido[2,3-b]pyrazin-2(1H)-one] | 34 nM | 53 nM | 42 nM
13 | COc1ccc(S(=O)(=O)C(C)C)cc1Nc1ccc2c(n1)N(C1CCNCC1)[C@H](C)C(=O)N2C [Example 26, (3R)-6-{[5-(Isopropylsulphonyl)-2-methoxyphenyl]amino}-1,3-dimethyl-4-(piperidin-4-yl)-3,4-dihydropyrido[2,3-b]pyrazin-2(1H)-one] | 147 nM | 52 nM | 10 nM
14 | COc1ccc(S(=O)(=O)C(C)C)cc1Nc1ccc2c(n1)N(C1CCN(CC(F)F)CC1)[C@H](C)C(=O)N2C [Example 29, (3R)-4-[1-(2,2-Difluoroethyl)piperidin-4-yl]-6-{[5-(isopropylsulphonyl)-2-methoxyphenyl]amino}-1,3-dimethyl-3,4-dihydropyrido[2,3-b]pyrazin-2(1H)-one] | 40 nM | 67 nM | 
15 | COc1cc(Nc2ccc3c(n2)N(C2CCOCC2)[C@H](C)C(=O)N3C)cc(S(C)(=O)=O)c1 [Example 40, (3R)-6-{[3-Methoxy-5-(methylsulphonyl)phenyl]amino}-1,3-dimethyl-4-(tetrahydro-2H-pyran-4-yl)-3,4-dihydropyrido[2,3-b]pyrazin-2(1H)-one] | 269 nM | 94 nM | 121 nM
16 | COc1ccc(S(=O)(=O)C(C)C)cc1Nc1ccc2c(n1)N(C1CCN(CCC(F)(F)F)CC1)[C@H](C)C(=O)N2C [Example 31, (3R)-6-{[5-(Isopropylsulphonyl)-2-methoxyphenyl]amino}-1,3-dimethyl-4-[1-(3,3,3-trifluoropropyl)piperidin-4-yl]-3,4-dihydropyrido[2,3-b]pyrazin-2(1H)-one] |  | 68 nM | 14 nM
